The source made the active and inactive calls. No cut-off for these calls is given here.
Assays:
Androgen receptor = biological target: T1, Androgen receptor (Homo sapiens, UniProt P10275); test: Antagonist activity at human androgen receptor LBD expressed in human MDA-kb2 cells by luciferase reporter gene assay; assay type: cell-based
T1 sequence (P10275 whole entry): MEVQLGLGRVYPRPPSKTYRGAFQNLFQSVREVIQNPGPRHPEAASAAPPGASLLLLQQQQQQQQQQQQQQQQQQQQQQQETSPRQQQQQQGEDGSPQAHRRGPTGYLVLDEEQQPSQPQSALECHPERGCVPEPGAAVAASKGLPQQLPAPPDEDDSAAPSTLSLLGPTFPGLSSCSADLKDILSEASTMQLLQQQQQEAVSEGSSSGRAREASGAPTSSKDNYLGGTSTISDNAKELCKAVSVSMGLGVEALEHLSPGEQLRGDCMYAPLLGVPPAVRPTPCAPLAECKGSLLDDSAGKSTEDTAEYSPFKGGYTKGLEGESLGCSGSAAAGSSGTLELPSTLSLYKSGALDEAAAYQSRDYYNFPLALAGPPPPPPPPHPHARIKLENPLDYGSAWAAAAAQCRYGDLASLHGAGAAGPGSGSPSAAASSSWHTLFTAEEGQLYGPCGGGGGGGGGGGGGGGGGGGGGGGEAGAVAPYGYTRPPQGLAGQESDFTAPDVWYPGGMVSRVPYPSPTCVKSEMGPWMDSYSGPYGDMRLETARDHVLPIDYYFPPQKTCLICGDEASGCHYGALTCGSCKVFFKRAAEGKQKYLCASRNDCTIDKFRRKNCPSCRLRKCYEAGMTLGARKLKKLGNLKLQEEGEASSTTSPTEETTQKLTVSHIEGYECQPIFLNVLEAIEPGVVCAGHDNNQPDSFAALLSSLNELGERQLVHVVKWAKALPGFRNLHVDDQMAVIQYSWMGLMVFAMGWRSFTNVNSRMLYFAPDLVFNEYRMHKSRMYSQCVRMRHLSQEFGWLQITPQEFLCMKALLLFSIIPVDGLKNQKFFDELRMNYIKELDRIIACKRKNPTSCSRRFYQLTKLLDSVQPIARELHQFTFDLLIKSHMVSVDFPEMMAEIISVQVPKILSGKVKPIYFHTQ

[1] = biological target: T2, Androgen receptor (Homo sapiens) (UniProt P10275); test: Competitive reversible inhibition of human androgen receptor LBD expressed in human […] cells at IC10 to IC70 in presence of […]; assay type: cell-based
T2 sequence (whole entry): T1 sequence (P10275 whole entry)

N#Cc1ccc(-c2cc(=O)c3c(O)cccc3o2)cc1
IC50 (Androgen receptor; read-out: IC50): 250 nM | IC50 (Androgen receptor; read-out: pIC50 (converted)): 251 nM

O=c1cc(-c2ccc(O)cc2)oc2cccc(O)c12
IC50 (Androgen receptor; read-out: IC50): 860 nM | IC50 (Androgen receptor; read-out: pIC50 (converted)): 851 nM

O=c1cc(-c2ccc(Cl)cc2)oc2cccc(F)c12
IC50 (Androgen receptor; read-out: IC50): 360 nM | IC50 (Androgen receptor; read-out: pIC50 (converted)): 363 nM

N#Cc1ccc(-c2cc(=O)c3c(F)cccc3o2)cc1
IC50 (Androgen receptor; read-out: IC50): 1200 nM | IC50 (Androgen receptor; read-out: pIC50 (converted)): 1200 nM

O=c1cc(-c2ccc(C(F)(F)F)cc2)oc2cccc(O)c12
IC50 (Androgen receptor; read-out: IC50): 1240 nM | IC50 (Androgen receptor; read-out: pIC50 (converted)): 1230 nM

O=c1cc(-c2ccc(Cl)cc2)oc2cccc(O)c12
IC50 (Androgen receptor; read-out: IC50): 460 nM | IC50 (Androgen receptor; read-out: pIC50 (converted)): 457 nM

CSc1ccc(-c2cc(=O)c3c(O)cccc3o2)cc1
IC50 (Androgen receptor; read-out: IC50): 1070 nM | IC50 (Androgen receptor; read-out: pIC50 (converted)): 1070 nM

O=c1cc(-c2ccc(F)cc2)oc2cccc(F)c12
inhibition [1]: Active | IC50 (Androgen receptor; read-out: IC50): 190 nM | IC50 (Androgen receptor; read-out: pIC50 (converted)): 191 nM

O=c1cc(-c2ccccc2)oc2cccc(F)c12
IC50 (Androgen receptor; read-out: IC50): 770 nM | IC50 (Androgen receptor; read-out: pIC50 (converted)): 776 nM

O=c1cc(-c2ccc([N+](=O)[O-])cc2)oc2cccc(O)c12
IC50 (Androgen receptor; read-out: IC50): 360 nM | IC50 (Androgen receptor; read-out: pIC50 (converted)): 363 nM

CN(C)c1ccc(-c2cc(=O)c3c(O)cccc3o2)cc1
IC50 (Androgen receptor; read-out: IC50): 850 nM | IC50 (Androgen receptor; read-out: pIC50 (converted)): 851 nM

O=c1cc(-c2ccc(F)cc2)oc2cccc(O)c12
IC50 (Androgen receptor; read-out: IC50): 330 nM | IC50 (Androgen receptor; read-out: pIC50 (converted)): 331 nM

Cc1ccc(-c2cc(=O)c3c(O)cccc3o2)cc1
IC50 (Androgen receptor; read-out: IC50): 11100 nM | IC50 (Androgen receptor; read-out: pIC50 (converted)): 11200 nM

Nc1ccc(-c2cc(=O)c3c(O)cccc3o2)cc1
IC50 (Androgen receptor; read-out: IC50): 1990 nM | IC50 (Androgen receptor; read-out: pIC50 (converted)): 2000 nM

COc1cccc2oc(-c3ccc(F)cc3)cc(=O)c12
IC50 (Androgen receptor; read-out: IC50): 1610 nM | IC50 (Androgen receptor; read-out: pIC50 (converted)): 1620 nM

NC(=O)c1ccc(-c2cc(=O)c3c(O)cccc3o2)cc1
IC50 (Androgen receptor; read-out: IC50): 3580 nM | IC50 (Androgen receptor; read-out: pIC50 (converted)): 3550 nM

Source: ChEMBL document CHEMBL2385078, “The systematic structure-activity relationship to predict how flavones bind to human androgen receptor for their antagonistic activity” (Bioorg Med Chem, 2013)
